This experiment deals with T1, human NK3 receptor (Homo sapiens, UniProt P29371).
T1 construct: expressed in transfected cells; host or cells: HEK293 cells (transient expression), membranes
T1 sequence (P29371 1-465): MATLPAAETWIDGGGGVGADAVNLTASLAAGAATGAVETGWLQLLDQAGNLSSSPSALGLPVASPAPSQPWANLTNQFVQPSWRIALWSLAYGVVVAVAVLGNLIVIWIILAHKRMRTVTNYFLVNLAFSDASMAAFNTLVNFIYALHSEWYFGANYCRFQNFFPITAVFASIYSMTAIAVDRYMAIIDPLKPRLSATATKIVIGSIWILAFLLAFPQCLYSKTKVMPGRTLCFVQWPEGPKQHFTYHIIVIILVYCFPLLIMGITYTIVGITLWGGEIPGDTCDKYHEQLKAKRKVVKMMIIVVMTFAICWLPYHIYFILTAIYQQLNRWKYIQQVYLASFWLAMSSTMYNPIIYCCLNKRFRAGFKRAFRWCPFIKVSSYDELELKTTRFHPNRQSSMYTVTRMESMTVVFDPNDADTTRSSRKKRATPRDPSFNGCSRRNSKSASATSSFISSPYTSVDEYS
The experiment is described as follows: [3H]SR142801 competition binding assay. The conditions noted are these: membrane from HEK293 cells transiently expressing recombinant human NK3 receptor; radioligand [3H]SR142801; Ki from IC50 by Cheng-Prussoff equation. As to the method: [^3H]SR142801 Competition Binding Assay
hNK3 receptor binding experiment were performed using [^3H]SR142801 (Catalog No. TRK1035, specific activity: 74.0 Ci/mmol, Amersham, GE Healthcare UK limited, Buckinghamshire, UK) and membrane isolated from HEK293 cells transiently expressing recombinant human NK3 receptor. After thawing, the membrane homogenates were centrifuged at 48,000×g for 10 min at 4° C., the pellets were resuspended in the 50 mM Tris-HCl, 4 mM MnCl2, 1 μM phosphoramidon, 0.1% BSA binding buffer at pH 7.4 to a final assay concentration of 5 μg protein/well. […] At the end of the incubation, membranes were filtered onto unitfilter (96-well white microplate with bonded GF/C filter preincubated 1 h in 0.3% PEI+0.3% BSA, Packard BioScience, Meriden, Conn.) with a Filtermate 196 harvester (Packard BioScience) and washed 4 times with ice-cold 50 mM Tris-HCl, pH 7.4 buffer. Nonspecific binding was measured in the presence of 10 μM SB222200 for both radioligands. The radioactivity on the filter was counted (5 min) on a Packard Top-count microplate scintillation counter with quenching correction after addition of 45 μl of microscint 40 (Canberra Packard S. A., Zürich, Switzerland) and shaking for 1 h. Inhibition curves were fitted according to the Hill equation: y=100/(1+(x/IC50)^nH), where nH=slope factor using Excel-fit 4 software (Microsoft). IC50 values were derived from the inhibition curve and the affinity constant (Ki) values were calculated using the Cheng-Prussoff equation Ki=IC50/(1+[L]/KD) where [L] is the concentration of radioligand and KD is its dissociation constant at the receptor, derived from the saturation isotherm. All experiments were performed in duplicate and the mean±standard error (SEM) of the individual Ki values was calculated.

pKi: −log10 of the molar value.

By pKi is commonly meant the negative decadic logarithm of the Ki, by convention in mol/L. For `CS(=O)(=O)N1CCN(C(=O)N2C[C@H](CNc3ccc(C(F)(F)F)cc3)[C@@H](c3ccc(Cl)c(Cl)c3)C2)CC1` (racemic) [Example 28], the pKi is 7.23.

For the compound `CC(Nc1ccc(C#N)cn1)[C@H]1CN(C(=O)N2CCN(S(C)(=O)=O)CC2)C[C@@H]1c1ccc(Cl)c(Cl)c1` (mixture of isomers) [Example 36, (3SR,4RS) 6-{1-(RS)-[4-(3,4-Dichloro-phenyl)-1-(4-methanesulfonyl-piperazine-1-carbonyl)-pyrrolidin-3-yl]-ethylamino}-nicotinonitrile and (3SR,4RS) 6-{1-(SR)-[4-(3,4-Dichloro-phenyl)-1-(4-methanesulfonyl-piperazine-1-carbonyl)-pyrrolidin-3-yl]-ethylamino}-nicotinonitrile], the negative-log Ki (pKi) was 7.17.

With `CS(=O)(=O)N1CCN(C(=O)N2CC(CNc3ncc(C#N)cn3)C(c3ccc(Cl)c(Cl)c3)C2)CC1` (racemic) [Example 31, (3SR,4RS)-2-{[4-(3,4-Dichloro-phenyl)-1-(4-methanesulfonyl-piperazine-1-carbonyl)-pyrrolidin-3-ylmethyl]-amino}-pyrimidine-5-carbonitrile], the negative logarithm of the Ki (pKi) is 7.10.

Consider `CS(=O)(=O)N1CCN(C(=O)N2C[C@H](CSc3ccc(Cl)cn3)[C@@H](c3ccc(Cl)c(Cl)c3)C2)CC1` (racemic) [Example 6, (3SR,4RS)-[3-(5-Chloro-pyridin-2-ylsulfanylmethyl)-4-(3,4-dichloro-phenyl)-pyrrolidin-1-yl]-(4-methanesulfonyl-piperazin-1-yl)-methanone], for which the pKi is 8.66.

Take `CC1(C(=O)N2CCC(C(=O)N3C[C@H](CNc4ncc(C(F)(F)F)cn4)[C@@H](c4ccc(F)cc4)C3)CC2)CC1` (racemic) [Example 46]: the pKi is 7.64.

Take `CN(C[C@H]1CN(C(=O)C2CCN(C(=O)C3(C)CC3)CC2)C[C@@H]1c1ccc(Cl)c(Cl)c1)c1ccc(C#N)cn1` [Example 64, 6-({(3S,4S)-4-(3,4-Dichloro-phenyl)-1-[1-(1-methyl-cyclopropanecarbonyl)-piperidine-4-carbonyl]-pyrrolidin-3-ylmethyl}-methyl-amino)-nicotinonitrile]: the pKi was 7.50.

With `CC1(C(=O)N2CCC(C(=O)N3C[C@H](CNc4ncc(C(F)(F)F)cn4)[C@@H](c4ccc(Cl)c(Cl)c4)C3)CC2)CC1` (racemic) [Example 34], the pKi was 8.21.

Regarding `CN(C[C@H]1CN(C(=O)C2CCN(C(=O)C3(C)CC3)CC2)C[C@@H]1c1ccc(Cl)cc1)c1ncc(C(F)(F)F)cn1` [Example 55, ((3S,4S)-3-(4-Chloro-phenyl)-4-{[methyl-(5-trifluoromethyl-pyrimidin-2-yl)-amino]-methyl}-pyrrolidin-1-yl)-[1-(1-methyl-cyclopropanecarbonyl)-piperidin-4-yl]-methanone], the pKi is 7.37.

As for `CN(C[C@H]1CN(C(=O)C2CCN(C(=O)C3(C)CC3)CC2)C[C@@H]1c1ccc(Cl)c(Cl)c1)c1ccc(Cl)cn1` [Example 66, {4-[(3S,4S)-3-{[(5-Chloro-pyridin-2-yl)-methyl-amino]-methyl}-4-(3,4-dichloro-phenyl)-pyrrolidine-1-carbonyl]-piperidin-1-yl}-(1-methyl-cyclopropyl)-methanone], the negative-log Ki (pKi) was 7.33.

For the compound `CS(=O)(=O)N1CCN(C(=O)N2C[C@H](CSc3ccc(C(F)(F)F)cc3)[C@@H](c3ccc(Cl)c(Cl)c3)C2)CC1` (racemic) [Example 1, (3SR,4RS)-[3-(3,4-Dichloro-phenyl)-4-(4-trifluoromethyl-phenylsulfanylmethyl)-pyrrolidin-1-yl]-(4-methanesulfonyl-piperazin-1-yl)-methanone], the pKi was 7.30.

Take `CS(=O)(=O)N1CCN(C(=O)N2C[C@H](CNc3ccc(C(F)(F)F)cn3)[C@@H](c3ccc(Cl)c(Cl)c3)C2)CC1` [Example 13, (3S,4S)-{3-(3,4-Dichloro-phenyl)-4-[(5-trifluoromethyl-pyridin-2-ylamino)-methyl]-pyrrolidin-1-yl}-(4-methanesulfonyl-piperazin-1-yl)-methanone]: the pKi is 8.18.

Take `CC(=O)N1CCC(C(=O)N2C[C@H](CNc3ncc(C(F)(F)F)cn3)[C@@H](c3ccc(Cl)c(Cl)c3)C2)CC1` (racemic) [Example 33]: the pKi was 8.12.

As for `CS(=O)(=O)N1CCN(C(=O)N2C[C@H](CSc3ccc(Cl)cc3)[C@@H](c3ccc(Cl)c(Cl)c3)C2)CC1` (racemic) [Example 2], the negative-log Ki (pKi) was 7.34.

For `CS(=O)(=O)N1CCN(C(=O)N2C[C@H](CSc3ccc(C#N)cc3)[C@@H](c3ccc(Cl)c(Cl)c3)C2)CC1` (racemic) [Example 4, (3SR,4RS)-4-[4-(3,4-Dichloro-phenyl)-1-(4-methanesulfonyl-piperazine-1-carbonyl)-pyrrolidin-3-ylmethylsulfanyl]-benzonitrile], the pKi was 7.21.

Turning to `O=C(c1ccnnc1)N1C[C@H](CNc2ccc(C(F)(F)F)cn2)[C@@H](c2ccc(Cl)c(Cl)c2)C1` (racemic) [Example 22], the pKi is 7.01.

For `CC1(C(=O)N2CCC(C(=O)N3C[C@H](CNc4ccc(C(F)(F)F)cn4)[C@@H](c4ccc(Cl)c(Cl)c4)C3)CC2)CC1` (racemic) [Example 21], the pKi was 8.05.

Turning to `Cc1cc(C(=O)N2C[C@H](CNc3ccc(C(F)(F)F)cn3)[C@@H](c3ccc(Cl)c(Cl)c3)C2)c(C)nn1` (racemic) [Example 23], the pKi is 7.96.

For `CN(C[C@H]1CN(C(=O)C2CCN(C(=O)C3(C)CC3)CC2)C[C@@H]1c1ccc(Cl)c(Cl)c1)c1ccc(C(F)(F)F)cn1` [Example 62, [4-((3S,4S)-3-(3,4-Dichloro-phenyl)-4-{[methyl-(5-trifluoromethyl-pyridin-2-yl)-amino]-methyl}-pyrrolidine-1-carbonyl)-piperidin-1-yl]-(1-methyl-cyclopropyl)-methanone], the pKi is 8.08.

On to `N#Cc1ccc(C(=O)N2CC(CNc3ccc(C(F)(F)F)cn3)C(c3ccc(Cl)c(Cl)c3)C2)cn1` (racemic) [Example 17, (3SR,4RS)-5-{3-(3,4-Dichloro-phenyl)-4-[(5-trifluoromethyl-pyridin-2-ylamino)-methyl]-pyrrolidine-1-carbonyl}-pyridine-2-carbonitrile], for which the pKi is 8.02.

As for `Cc1cc(C(=O)N2C[C@H](CN(C)c3ncc(C(F)(F)F)cn3)[C@@H](c3ccc(Cl)c(Cl)c3)C2)cnn1` [Example 60, ((3S,4S)-3-(3,4-Dichloro-phenyl)-4-{[methyl-(5-trifluoromethyl-pyrimidin-2-yl)-amino]-methyl}-pyrrolidin-1-yl)-(6-methyl-pyridazin-4-yl)-methanone], the pKi was 7.80.

Consider `CS(=O)(=O)N1CCN(C(=O)N2C[C@H](CNc3ccc(Cl)cn3)[C@@H](c3ccc(Cl)c(Cl)c3)C2)CC1` (racemic) [Example 30], for which the pKi is 7.44.

Regarding `CC(Nc1ccc(C(F)(F)F)cn1)[C@H]1CN(C(=O)N2CCN(S(C)(=O)=O)CC2)C[C@@H]1c1ccc(Cl)c(Cl)c1` (mixture of isomers) [Example 37, (3SR,4RS) {3-(3,4-Dichloro-phenyl)-4-[1-(RS)-(5-trifluoromethyl-pyridin-2-ylamino)-ethyl]-pyrrolidin-1-yl}-(4-methanesulfonyl-piperazin-1-yl)-methanone and (3SR,4RS) {3-(3,4-Dichloro-phenyl)-4-[1-(SR)-(5-trifluoromethyl-pyridin-2-ylamino)-ethyl]-pyrrolidin-1-yl}-(4-methanesulfonyl-piperazin-1-yl)-methanone], the pKi was 7.26.

In the case of `Cc1cc(C(=O)N2C[C@H](CNc3ncc(C(F)(F)F)cn3)[C@@H](c3ccc(Cl)c(Cl)c3)C2)cnn1` [Example 58, {(3S,4S)-3-(3,4-Dichloro-phenyl)-4-[(5-trifluoromethyl-pyrimidin-2-ylamino)-methyl]-pyrrolidin-1-yl}-(6-methyl-pyridazin-4-yl)-methanone], the pKi was 8.92.

For the compound `CN(C[C@H]1CN(C(=O)C2CCN(C(=O)C3(C)CC3)CC2)C[C@@H]1c1ccc(Cl)c(Cl)c1)c1ncc(C(F)(F)F)cn1` [Example 59, ((3S,4S)-3-(3,4-Dichloro-phenyl)-4-{[methyl-(5-trifluoromethyl-pyrimidin-2-yl)-amino]-methyl}-pyrrolidin-1-yl)-[1-(1-methyl-cyclopropanecarbonyl)-piperidin-4-yl]-methanone], the pKi is 8.64.

Source of the values: patent publication US8318759B2, “Pyrrolidine derivatives as NK3 receptor antagonists” (Hoffmann-La Roche Inc., priority 2009, dated 2012).
